The values that follow come from patent publication US20120245199A1, “[4 [4-(AMINOMETHYL-2-FLUORO-PHENYL)-PIPERIDIN-1-YL]-(1H-PYRROLO-PYRIDIN-YL)-METHANONES AND SYNTHESIS THEREOF” (SANOFI, priority 2009, published 2012).

“And” between values parts separate entries of the source, which are not always exact repeats. Equal entries are not always repeated. Structures can show the parent of a compound that is named as a salt.

T1 sequence (Q15661 31-275): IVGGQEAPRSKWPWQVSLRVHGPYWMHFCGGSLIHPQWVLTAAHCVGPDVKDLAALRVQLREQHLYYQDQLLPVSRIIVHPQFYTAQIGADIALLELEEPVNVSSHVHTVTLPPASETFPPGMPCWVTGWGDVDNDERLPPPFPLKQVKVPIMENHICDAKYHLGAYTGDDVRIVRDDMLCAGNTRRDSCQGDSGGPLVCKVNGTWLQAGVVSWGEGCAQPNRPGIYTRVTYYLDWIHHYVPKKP

One data set concerns the target T1, recombinant human beta tryptase (Homo sapiens, UniProt Q15661).
T1 construct: host or cells: yeast cells
In words: beta-Tryptase inhibition, chromogenic enzyme assay (S2366 substrate). The class given is biochemical. To be noted: Ki calculated from IC50: Ki=IC50/(1+[Substrate]/Km), 0.5 mM S2366, room temperature. An excerpt: Inhibition of this catalytic activity may be measured by the in vitro enzyme assay and the cellular assay.
Tryptase inhibition activity is confirmed using either isolated human lung tryptase or recombinant human beta tryptase expressed in yeast cells. Essentially equivalent results are obtained using isolated native enzyme or the expressed enzyme. The assay procedure employs a 96 well microplate (Costar 3590) using L-pyroglutamyl-L-prolyl-L-arginine-para-nitroanilide (S2366: Quadratech) as substrate (essentially as described by McEuen et. al. Biochem Pharm, 1996, 52, pages 331-340). Assays are performed at room temperature using 0.5 mM substrate (2×Km) and the microplate is read on a microplate reader (Beckman Biomek Plate reader) at 405 nm wavelength.
S2366 (Stock solutions of 2.5 mM).
Purified recombinant beta Tryptase Stocks of 310 μg/mL.
• Add 60 μL of diluted substrate (final concentration of 500 μM in assay buffer) to each well • Add compound in duplicates, final concentration of 20 μM, volume 20 μL • Add enzyme at a final concentration of 50 ng/mL in a volume of 20 μL • Total volume for each well is 100 μL • Agitate briefly to mix and incubate at room temp in the dark for 30 minutes • Read absorbencies at […] Each plate has the following controls: • Totals: 60 μL of substrate, 20 μL of buffer (with 0.2% final concentration of DMSO), 20 μL of enzyme • Non-specific: 60 μL of substrate, 40 μL of buffer (with 0.2% DMSO) • Totals: 60 μL of substrate, 20 μL of buffer (No DMSO), 20 μL of enzyme • Non-specific: 60 μL of substrate, 40 μL of buffer (No DMSO)
The protocol is essentially the same as above except that the compound is added in duplicates at the following final concentrations: 0.01, 0.03, 0.1, 0.3, 1, 3, 10 μM (All dilutions carried out manually). For every assay, whether single point or IC50 determination, a standard compound is used to derive IC50 for comparison. From the IC50 value, the Ki can be calculated using the following formula: Ki=IC50/(1+[Substrate]/Km).
As to `NCc1ccc(F)c(C2CCN(C(=O)c3cc4cccnc4[nH]3)CC2)c1` [Example 1, [4-(5-Aminomethyl-2-fluoro-phenyl)-piperidin-1-yl]-(1H-pyrrolo[2,3-b]pyridin-2-yl)-methanone dihydrochloride], the Ki (as a rule, a measure of affinity in units of concentration, obtained from inhibition or displacement) is 221 nM. For `COCCn1c(C(=O)N2CCC(c3cc(CN)ccc3F)CC2)cc2cccnc21` [Example 2, [4-(5-Aminomethyl-2-fluoro-phenyl)-piperidin-1-yl]-[1-(2-methoxy-ethyl)-1H-pyrrolo[2,3-b]pyridin-2-yl]-methanone dihydrochloride], the Ki was 538 nM.

Take `COCCn1c(C(=O)N2CCC(c3cccc(CN)c3)CC2)cc2cccnc21` [Example 3, [4-(3-Aminomethyl-phenyl)-piperidin-1-yl]-[1-(2-methoxy-ethyl)-1H-pyrrolo[2,3-b]pyridin-2-yl]-methanone dihydrohydrochloride, dihydrochloride]: the Ki is 915 nM. Same read-out and setting: in the case of `COCCn1c(C(=O)N2CCC(c3cc(CN)ccc3F)CC2)cc2cnccc21` [Example 4, [4-(5-Aminomethyl-2-fluoro-phenyl)-piperidin-1-yl]-[1-(2-methoxy-ethyl)-1H-pyrrolo[3,2-c]pyridin-2-yl]-methanone hydrochloride] it was 1100 nM. The same measure, in the same setting: the value for `NCc1ccc(F)c(C2CCN(C(=O)c3c[nH]c4cnccc34)CC2)c1` [Example 5, [4-(5-Aminomethyl-2-fluoro-phenyl)-piperidin-1-yl]-(1H-pyrrolo[2,3-c]pyridin-3-yl)-methanone dihydrochloride] was 220 nM; that for `COCCn1cc(C(=O)N2CCC(c3cccc(CN)c3)CC2)c2ccncc21` [Example 8, [4-(3-Aminomethyl-phenyl)-piperidin-1-yl]-[1-(2-methoxy-ethyl)-1H-pyrrolo[2,3-c]pyridin-3-yl]-methanone dihydrochloride] was 99 nM.

In the case of `COCCn1cc(C(=O)N2CCC(c3cc(CN)ccc3F)CC2)c2ccncc21` [Example 9, [4-(5-Aminomethyl-2-fluoro-phenyl)-piperidin-1-yl]-[1-(2-methoxy-ethyl)-1H-pyrrolo[2,3-c]pyridin-3-yl]-methanone dihydrochloride], the Ki is 35 nM.

Regarding `COCCn1cc(C(=O)N2CCC(c3cc(CN)ccc3F)CC2)c2cnccc21` [Example 10, [4-(5-Aminomethyl-2-fluoro-phenyl)-piperidin-1-yl]-[1-(2-methoxy-ethyl)-1H-pyrrolo[3,2-c]pyridin-3-yl]-methanone dihydrochloride], the Ki was 180 nM.

For the molecule `COCCOc1nccc2c(C(=O)N3CCC(c4cc(CN)ccc4F)CC3)cn(CCOC)c12` [Example 11, [4-(5-Aminomethyl-2-fluoro-phenyl)-piperidin-1-yl]-[7-(2-methoxy-ethoxy)-1-(2-methoxy-ethyl)-1H-pyrrolo[2,3-c]pyridin-3-yl]-methanone dihydrochloride], the Ki was 166 nM.

As to `COCCn1cc(C(=O)N2CCC(c3cc(CN)ccc3F)CC2)c2nccc(C)c21` [Example 12, [4-(5-Aminomethyl-2-fluoro-phenyl)-piperidin-1-yl]-[1-(2-methoxy-ethyl)-7-methyl-1H-pyrrolo[3,2-b]pyridin-3-yl]-methanone dihydrochloride], the Ki is 23 nM and 13 nM. Still for that read-out and setting: the value for `COCCn1cc(C(=O)N2CCC(c3cc(CN)ccc3F)CC2)c2ccnc(Cl)c21` [Example 13, [4-(5-Aminomethyl-2-fluoro-phenyl)-piperidin-1-yl]-[7-chloro-1-(2-methoxy-ethyl)-1H-pyrrolo[2,3-c]pyridin-3-yl]-methanone dihydrochloride] was 25 nM; that for `COCCn1cc(C(=O)N2CCC(c3cc(CN)ccc3F)CC2)c2ccnc(C)c21` [Example 14, [4-(5-Aminomethyl-2-fluoro-phenyl)-piperidin-1-yl]-[1-(2-methoxy-ethyl)-7-methyl-1H-pyrrolo[2,3-c]pyridin-3-yl]-methanone] was 25 nM; that for `COCCn1cc(C(=O)N2CCC(c3cc(CN)ccc3F)CC2)c2nccc(OC)c21` [Example 15, [4-(5-Aminomethyl-2-fluoro-phenyl)-piperidin-1-yl]-[7-methoxy-1-(2-methoxy-ethyl)-1H-pyrrolo[3,2-b]pyridin-3-yl]-methanone dihydrochloride] was 9.9 nM. For the molecule `NCc1ccc(F)c(C2CCN(C(=O)c3cn(CCc4ccccc4)c4cccnc34)CC2)c1` [Example 16, [4-(5-Aminomethyl-2-fluoro-phenyl)-piperidin-1-yl]-(1-phenethyl-1H-pyrrolo[3,2-b]pyridin-3-yl)-methanone dihydrochloride], the Ki is 2.9 nM. Consider `NCc1ccc(F)c(C2CCN(C(=O)c3cn(CCN4CCCCC4)c4cccnc34)CC2)c1` [Example 17, [4-(5-Aminomethyl-2-fluoro-phenyl)-piperidin-1-yl]-[1-(2-piperidin-1-yl-ethyl)-1H-pyrrolo[3,2-b]pyridin-3-yl]-methanone trihydrochloride], for which the Ki is 290 nM. On the same count and under the same terms, the value for `NCc1ccc(F)c(C2CCN(C(=O)c3cn(CCN4CCCC4)c4cccnc34)CC2)c1` [Example 18, [4-(5-Aminomethyl-2-fluoro-phenyl)-piperidin-1-yl]-[1-(2-pyrrolidin-1-yl-ethyl)-1H-pyrrolo[3,2-b]pyridin-3-yl]-methanone trihydrochloride] was 277 nM; that for `NCc1ccc(F)c(C2CCN(C(=O)c3c[nH]c4ncccc34)CC2)c1` [Example 19, [4-(5-Aminomethyl-2-fluoro-phenyl)-piperidin-1-yl]-(1H-pyrrolo[2,3-b]pyridin-3-yl)-methanone dihydrochloride] was 203 nM; that for `COCCn1cc(C(=O)N2CCC(c3cc(CN)ccc3F)CC2)c2cccnc21` [Example 20, [4-(5-Aminomethyl-2-fluoro-phenyl)-piperidin-1-yl]-[1-(2-methoxy-ethyl)-1H-pyrrolo[2,3-b]pyridin-3-yl]-methanone dihydrochloride] was 92 nM.

Test system in another data set: not given
Experiment: not given
Conditions: not given
On to `COCCn1cc(C(=O)N2CCC(c3cc(CN)ccc3F)CC2)c2ccnc(Cl)c21` (as salt: hydrochloride) [Example 13, [4-(5-Aminomethyl-2-fluoro-phenyl)-piperidin-1-yl]-[7-chloro-1-(2-methoxy-ethyl)-1H-pyrrolo[2,3-c]pyridin-3-yl]-methanone dihydrochloride], for which the melting point (in general, the temperature, or range, at which the solid turns liquid) lay in the range of 163 to 167 °C.
